According to patent US12083089B2, “Compositions and methods for stimulating ventilatory and/or respiratory drive” (CASE WESTERN RESERVE UNIVERSITY, priority 2015, dated 2024):
Marks after values point to notes of the source that are not given here.

Assays:
[1] = system: conscious male adult Sprague-Dawley rats; assay: Plethysmographic ventilatory responses to test compounds in conscious rats; type: in vivo, rat; conditions: 500 μmol/kg, i.v., FIG. 2
[2] = system: freely moving adult male Sprague-Dawley rats; assay: Whole-body plethysmography of ventilatory parameters in morphine-treated rats
Procedure: Permissions, rats, surgical procedures and blinding of protocols. All studies were carried out in accordance with the NIH Guide for the Care and Use of Laboratory Animals (NIH Publication No. […]) revised in 1996. The protocols were approved by the Animal Care and Use Committees of the University of Virginia, Case Western Reserve University and Loma Linda University. In addition, all studies were carried out in compliance with the ARRIVE (Animal Research: Reporting of In Vivo Experiments) guidelines. Adult male Sprague-Dawley rats (Harlan, Madison, WI, USA) were implanted with jugular vein catheters under 2% isoflurane anesthesia and some rats received femoral arterial catheters. The rats were allowed at least four days to recover from surgery before use. All arterial catheters were flushed daily with heparin solution (50 units of heparin in phosphate-buffered saline at 0.1 M, pH 7.4). All catheters were flushed with phosphate-buffered saline (0.1 M, pH 7.4) approximately four hours before commencement of the experiments. All studies were performed in a quiet laboratory with relative humidity of 49±2% and room temperature of 21.4±0.2° C. […] Also, please note that the antinociception and ventilatory studies were done in separate groups of rats so as to not complicate the respiratory measurements. The recording (plethysmography, antinociception) sessions and the arterial blood gas assays were done by a particular investigator who administered the opioid, vehicle or test drug such as d-cystine diME. The syringes containing the vehicle or test drug were made up by another investigator, such that the investigator running the actual experiment was blinded to the treatment protocol. In every case, the data files resulting from a particular study were first collated and analyzed by another investigator in the group.
Ventilatory parameters were recorded in freely moving rats by whole body plethysmography (PLY3223; Data Sciences International, St. Paul, MN). The rats were placed in individual chambers and given 60 min to acclimatize to allow true resting ventilatory parameters to be established. […] The rats received another injection of vehicle or 1-NACme (500 μmol/kg, IV) 15 min later and ventilatory parameters were recorded for a further 60 min.
The provided software (Fine Pointe, BUXCO) constantly corrected digitized values for changes in chamber temperature and humidity. Pressure changes associated with the respiratory waveforms were then converted to volumes (i.e., TV, PIF and PEF) using the algorithm of Epstein and colleagues. Specifically, factoring in chamber temperature and humidity, the cycle analyzers filtered the acquired signals, and BUXCO algorithms (Fine Pointe) generated an array of box flow data that identified a waveform segment as an acceptable breath. From that data vector, the minimum and maximum values were determined. Flows at this point were considered to be “box flow” signals.
The recorded data (1 min bins) and derived parameters, Vt/Ti and Response Area (cumulative percent changes from pre-values) were taken for statistical analyses. The pre-drug 1 min bins excluded occasional marked deviations from resting due to movements or scratching by the rats. These exclusions ensured accurate determinations of baseline parameters. The data are presented as mean±SEM. All data unless other-wise stated (see immediately below) were analyzed by one-way or two-way analysis of variance followed by Student's modified t test with Bonferroni corrections for multiple comparisons between means using the error mean square terms from each ANOVA. A value of P<0.05 denoted the initial level of statistical significance that was modified according to the number of comparisons between means.

freely moving rats [3] = assay: Arterial blood-gas chemistry and A-a gradient in morphine-treated rats; type: in vivo, rat; conditions: for deleterious actions of morphine on ABG chemistry and A-a gradient: bolus 500 μmol/kg i.v. after morphine 10 mg/kg i.v., Example 1; for deleterious effects of morphine on ABG chemistry and A-a gradient after prior infusion: prior infusion 14.3 μmol/kg/min, total 500 μmol/kg i.v. over 35 min, morphine 10 mg/kg i.v.
freely moving rats [4] = assay: Tail-flick latency (TFL) test; type: in vivo, rat
adult male rats [5] = assay: Hargreaves Hind-paw Latency Test, morphine 1 mg/kg; type: in vivo, rat; conditions: for Hargreaves hind-paw withdrawal latency: FIG. 24 study
adult male rats [6] = assay: Von Frey Test, morphine 1 mg/kg; type: in vivo, rat; conditions: for force needed to initiate hind-paw withdrawal (Von Frey): FIG. 25 study
conscious rats = assay: Morphine-induced analgesia (paw withdrawal latency assay), Example 1; type: in vivo, rat; conditions: pretreatment 500 μmol/kg i.v.; morphine 5 mg/kg i.v.
rats = assay: Hemodynamics (preliminary toxicology); type: in vivo, rat; conditions: 500 μmol/kg, i.v.
Description: FIGS. 11(A-C) illustrate plots showing the effects of test agents (500 μmol/kg, i.v.) on hemodynamic variables. Data are presented mean±SEM (n=8 rats per group).

[7] = 500 μmol/kg IV with morphine sulfate 1.0 mg/kg IV
[8] = 500 μmol/kg IV, tested 20 to 30 min post-injection
[9] = two injections of L-NACme 500 μmol/kg IV after morphine 10 mg/kg IV

## COC(=O)[C@@H](N)CS [L-CYSme, L-cysteine methylester]
[1]
  total ventilatory responses recorded over the 30 min post-injection period (% baseline), comparison of efficacy: as efficacious as L-CYSee

## N[C@H](CSSC[C@@H](N)C(=O)O)C(=O)O [D-Cystine, D-cystine]
[2]; rat, in vivo
  Frequency: Drug - entire 75 min, % change: +4.5 ± 3.3%
  Frequency: Drug - last 15 min, % change: +14.3 ± 2.8*^,† %
  Frequency: Drug maximum, % change: −1.2 ± 2.1%
  Minute Ventilation: Drug - entire 75 min, % change: −19 ± 5 %
  Minute Ventilation: Drug - last 15 min, % change: −2 ± 4*^,† %
  Minute Ventilation: Drug maximum, % change: −4.4 ± 2.5%
  Tidal Volume: Drug - entire 75 min, % change: −22 ± 4 %
  Tidal Volume: Drug - last 15 min, % change: −12 ± 2*^,† %
  Tidal Volume: Drug maximum, % change: +3.4 ± 2.2%
  immediate effects on Freq, TV or MV: did not elicit immediate effects
  return of Freq, TV and MV toward pre-morphine levels versus vehicle-treated rats: returned toward pre-morphine levels more quickly
Freely moving rats [3]
  deleterious actions of morphine on ABG chemistry and A-a gradient: minor delayed effects
Freely moving rats [3]; freely moving rats, morphine 10 mg/kg IV, then drug 500 μmol/kg IV 15 min later, FIG. 18
  changes in ABG chemistry (pH, pCO2, pO2 and sO2): returned toward pre-injection levels faster
Freely moving rats [3]; freely moving rats, morphine 10 mg/kg IV, then drug 500 μmol/kg IV 15 min later, FIG. 19
  changes in A-a gradient: returned toward pre-injection levels
Freely moving rats [4]; 10 min-post drug (time −10 min), D-cystine 500 μmol/kg IV alone
  Tail-Flick latency: 3.3 ± 0.4 s
Freely moving rats [4]; 20 min post-drug (time 0), D-cystine 500 μmol/kg IV alone
  Tail-Flick latency: 3.2 ± 0.4 s
Freely moving rats [4]; drug 500 μmol/kg IV 20 min before morphine 10 mg/kg IV
  antinociceptive effects of morphine (TFL) in drug-pretreated rats: also enhanced
Freely moving rats [4]; post-morphine - 30 min, D-cystine 500 μmol/kg IV pretreated, morphine 10 mg/kg IV
  Tail-Flick latency: 12 ± 0.0 s
Freely moving rats [4]; post-morphine - 60 min, D-cystine 500 μmol/kg IV pretreated, morphine 10 mg/kg IV
  Tail-Flick latency: 12 ± 0.0 s
Freely moving rats [4]; post-morphine - 90 min, D-cystine 500 μmol/kg IV pretreated, morphine 10 mg/kg IV
  Tail-Flick latency: 12 ± 0.0 s
Freely moving rats [4]; post-morphine - 120 min, D-cystine 500 μmol/kg IV pretreated, morphine 10 mg/kg IV
  Tail-Flick latency (sec): 12 ± 0.0*^,† sec
Freely moving rats [4]; post-morphine - 180 min, D-cystine 500 μmol/kg IV pretreated, morphine 10 mg/kg IV
  Tail-Flick latency (sec): 10.7 ± 0.3*^,† sec
Freely moving rats [4]; post-morphine - 210 min, D-cystine 500 μmol/kg IV pretreated, morphine 10 mg/kg IV
  Tail-Flick latency (sec): 7.4 ± 0.3*^,† sec
Freely moving rats [4]; post-morphine - 240 min, D-cystine 500 μmol/kg IV pretreated, morphine 10 mg/kg IV
  Tail-Flick latency: 5.0 ± 0.3 s
Freely moving rats [4]; post-morphine - 360 min, D-cystine 500 μmol/kg IV pretreated, morphine 10 mg/kg IV
  Tail-Flick latency: 3.5 ± 0.3 s

## COC(=O)[C@@H](N)CSSC[C@H](N)C(=O)OC [L-cystine diME]
Adult male rats [5]; [7]
  effect on the antinociception actions of morphine (Hargreaves): neither thiolester affected
Adult male rats [5]; [8]
  thermal nociception (Hargreaves Testing) when given alone: neither d-cystine diME nor L-cystine diME affected
Adult male rats [5]; L-cystine diME plus morphine
  Hargreaves hind-paw withdrawal latency: 18.5 ± 1.1 s
Adult male rats [5]; given alone, L-cystine diME 500 μmol/kg IV, morphine sulfate 1 mg/kg IV
  Hargreaves hind-paw withdrawal latency: 12.0 ± 0.5 s
Adult male rats [5]; morphine+L-cystine diME
  Hargreaves hind-paw withdrawal latency: 17.2 ± 0.9 s
Adult male rats [6]; [7]
  effect on the antinociception actions of morphine (Von Frey): neither thiolester affected
Adult male rats [6]; [8]
  mechanical allodynia (Von Frey Testing) when given alone: neither d-cystine diME nor L-cystine diME affected
Adult male rats [6]; L-Cystine diME+morphine
  force needed to initiate hind-paw withdrawal (Von Frey): 87.3 ± 4.2 g
Adult male rats [6]; given alone, L-cystine diME 500 μmol/kg IV, morphine 1 mg/kg IV
  force needed to initiate hind-paw withdrawal (Von Frey): 51.0 ± 7.6 g
Adult male rats [6]; morphine+L-Cystine diME
  force needed to initiate hind-paw withdrawal (Von Frey): 86.9 ± 5.2 g

## CCOC(=O)[C@H](N)CS [D-CYSee, D-Cysteine ethyl ester]
[1]
  total ventilatory responses recorded over the 30 min post-injection period (% baseline), comparison of efficacy: more efficacious that L-CYSee/L-CYSme
[2]; bolus 500 μmol/kg i.v. (D-CYSee 2×500 μmol/kg) after morphine 10 mg/kg i.v., conscious rats, Example 1
  ventilatory depressant effects of morphine incl. tidal volume/inspiratory time (Vt/Ti): sustained reversal
Freely moving rats [3]
  deleterious actions of morphine on ABG chemistry and A-a gradient: sustained reversal
Conscious rats
  decay of morphine analgesia: decayed more quickly
  initial level of analgesia (paw withdrawal latency) elicited by morphine: did not affect

## CCOC(=O)[C@@H](N)CO [L-SERee, L-serine ethyl ester]
[1]
  total ventilatory responses recorded over the 30 min post-injection period (% baseline), comparison of efficacy: minimally active
Freely moving rats [3]
  deleterious effects of morphine on ABG chemistry and A-a gradient after prior infusion: without effect

## CCOC(=O)[C@@H](N)CS [L-CYSee, L-Cysteine ethyl ester]
[2]; prior infusion 14.3 μmol/kg/min, total 500 μmol/kg i.v. over 35 min, conscious rats
  peak inspiratory flow and respiratory drive (Vt/Ti) during infusion: dramatically increased
[2]; prior infusion total 500 μmol/kg i.v. over 35 min, morphine 10 mg/kg i.v.
  subsequent effects of a bolus injection of morphine on ventilation: markedly blunted
[2]; subsequent injection 250 μmol/kg/min as printed, morphine 10 mg/kg i.v.
  effect of a subsequent injection after infusion and morphine: prompt beneficial effects
Freely moving rats [3]
  deleterious effects of morphine on ABG chemistry and A-a gradient after prior infusion: virtually eliminated
rats
  cardiac output and heart rate: decreases
  hemodynamic responses (FIG. 11): minimal responses
  mean arterial blood pressure (MAP): substantial transient decreases
  total peripheral resistance: no changes

## COC(=O)[C@H](CS)NC(C)=O [L-NACme, L-N-acetylcysteine methylester]
[1]
  total ventilatory responses recorded over the 30 min post-injection period (% baseline), comparison of efficacy: comparatively minor effects
[2]; 2×500 μmol/kg, IV, morphine 10 mg/kg
  effects on morphine-induced changes in Freq, TV and MV: only minor effects
[2]; [9]
  Frequency: Drug - entire 75 min, % change: +11 ± 2 %
  Minute Ventilation: Drug - entire 75 min, % change: −19 ± 4 %
  Tidal Volume: Drug - entire 75 min, % change: −22 ± 3 %
